Data as given in PubChem BioAssay (NCI).
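Results reflect a 48-hour exposure of cells in 96-well plates to compound at five concentrations. TGI is the concentration that stops growth completely.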

Assays:
Experiment in all cases: NCI tumour cell line growth inhibition, 48 h
[1] = system: HCC-2998 colon
[2] = system: OVCAR-4 ovarian
[3] = system: A498 renal
[4] = system: UACC-257 melanoma
[5] = system: NCI-H522 lung
[6] = system: NCI-H460 lung
[7] = system: HOP-18 NSCLC
[8] = system: EKVX NSCLC
[9] = system: SK-MEL-2 melanoma
[10] = system: NCI-H23 lung
[11] = system: M14 melanoma
[12] = system: CCRF-CEM leukemia
[13] = system: IGROV1 ovarian
[14] = system: SNB-78 CNS
[15] = system: SR leukemia
[16] = system: HT29 colon
[17] = system: MALME-3M melanoma
[18] = system: HCT-116 colon
[19] = system: TK-10 renal
[20] = system: U251 CNS
[21] = system: SNB-75 CNS
[22] = system: KM20L2 colon
[23] = system: LXFL 529 NSCLC
[24] = system: SF-268 CNS
[25] = system: OVCAR-8 ovarian
[26] = system: LOX IMVI melanoma
[27] = system: OVCAR-5 ovarian
[28] = system: SF-539 CNS
[29] = system: M19-MEL melanoma
[30] = system: SK-OV-3 ovarian
[31] = system: CAKI-1 renal
[32] = system: ACHN renal
[33] = system: COLO 205 colon
[34] = system: XF 498 CNS
[35] = system: SK-MEL-28 melanoma
[36] = system: HOP-92 NSCLC
[37] = system: SF-295 CNS
[38] = system: SK-MEL-5 melanoma
[39] = system: RXF-631 renal
[40] = system: K-562 leukemia
[41] = system: DLD-1 colon
[42] = system: SW-620 colon
[43] = system: DMS 273 small cell lung
[44] = system: HCT-15 colon
[45] = system: UACC-62 melanoma
[46] = system: UO-31 renal
[47] = system: HOP-62 NSCLC
[48] = system: DMS 114 small cell lung
[49] = system: HL-60(TB) leukemia
[50] = system: 786-0 renal
[51] = system: NCI-H226 lung
[52] = system: SNB-19 CNS
[53] = system: SN12C renal
[54] = system: RPMI-8226 leukemia
[55] = system: KM12 colon
[56] = system: RXF 393 renal
[57] = system: MOLT-4 leukemia
[58] = system: A549 NSCLC
[59] = system: OVCAR-3 ovarian

With `O=C1NC(=S)NC(=O)C1=Cc1ccc([N+](=O)[O-])o1` the TGI [1] was greater than 100 µM, the TGI [2] was 31.1 µM and the TGI [3] was greater than 100 µM. It also gave a TGI [4] greater than 100 µM, a TGI [5] of 35.1 µM and a TGI [6] greater than 100 µM. For the same compound, the TGI [7] was 35.3 µM, the TGI [8] was 42.8 µM and the TGI [9] was greater than 100 µM. It also gave a TGI [10] of 31.9 µM, a TGI [11] of 29.5 µM and a TGI [12] of 73.6 µM. It also gave a TGI [13] of 60.1 µM, a TGI [14] of 49.3 µM and a TGI [15] of 43.9 µM. It also gave a TGI [16] of 48.7 µM, a TGI [17] of 28.4 µM and a TGI [18] of 34 µM. It also gave a TGI [19] greater than 100 µM, a TGI [20] greater than 100 µM and a TGI [21] of 31.6 µM. It also gave a TGI [22] of 43.1 µM, a TGI [23] of 30.5 µM and a TGI [24] greater than 100 µM. For the same compound, the TGI [25] was 66.9 µM, the TGI [26] was 38.7 µM and the TGI [27] was 34.6 µM. The TGI [28] was 61.1 µM, the TGI [29] was 36.8 µM and the TGI [30] was greater than 100 µM. For the same compound, the TGI [31] was 37 µM, the TGI [32] was 34.6 µM and the TGI [33] was 38.2 µM. The TGI [34] was 52.3 µM, the TGI [35] was 47.7 µM and the TGI [36] was 36.3 µM. The TGI [37] was greater than 100 µM, the TGI [38] was 44.5 µM and the TGI [39] was 33.5 µM. It also gave a TGI [40] of 86.7 µM, a TGI [41] of 39 µM and a TGI [42] of 41.6 µM. It also gave a TGI [43] of 37.8 µM, a TGI [44] of 32.6 µM and a TGI [45] of 39.1 µM. It also gave a TGI [46] greater than 100 µM, a TGI [47] greater than 100 µM and a TGI [48] of 34.6 µM. For the same compound, the TGI [49] was 87.6 µM, the TGI [50] was 36.5 µM and the TGI [51] was greater than 100 µM. The TGI [52] was greater than 100 µM, the TGI [53] was 29.8 µM and the TGI [54] was 54 µM. For the same compound, the TGI [55] was greater than 100 µM, the TGI [56] was 38.3 µM and the TGI [57] was 43.4 µM. For the same compound, the TGI [58] was greater than 100 µM.

With `Cc1cc(N(CCC#N)CCC#N)ccc1/C(Sc1ccccc1)=C(\NC(=O)/C=C/c1ccccc1)C(=O)Sc1ccccc1` the TGI [1] was 23.9 µM, the TGI [2] was 18.6 µM and the TGI [3] was 16.5 µM. The TGI [4] was 25.9 µM, the TGI [5] was 1.82 µM and the TGI [6] was 23.4 µM. The TGI [7] was 51.1 µM, the TGI [8] was 54.2 µM and the TGI [9] was 16.6 µM. For the same compound, the TGI [10] was 11.2 µM, the TGI [11] was 6.3 µM and the TGI [12] was 15.3 µM. The TGI [59] was 15.8 µM, the TGI [13] was 2.78 µM and the TGI [14] was 24.6 µM. It also gave a TGI [15] greater than 31.5 µM, a TGI [16] of 11.8 µM and a TGI [17] of 25 µM. The TGI [18] was 9.79 µM, the TGI [19] was 25.2 µM and the TGI [20] was 5.83 µM. For the same compound, the TGI [21] was 17.7 µM, the TGI [22] was 8.09 µM and the TGI [23] was 12.6 µM. It also gave a TGI [24] of 3.81 µM, a TGI [25] of 18.6 µM and a TGI [26] of 2.52 µM. The TGI [27] was 16.3 µM, the TGI [28] was 3.44 µM and the TGI [29] was 14.7 µM. For the same compound, the TGI [30] was 19.8 µM, the TGI [31] was 12.1 µM and the TGI [32] was 18.7 µM. For the same compound, the TGI [33] was 7.71 µM, the TGI [34] was 30.4 µM and the TGI [35] was 18.5 µM. For the same compound, the TGI [36] was 15 µM, the TGI [37] was 14.7 µM and the TGI [38] was 16.3 µM. The TGI [39] was greater than 32.2 µM, the TGI [40] was greater than 58.7 µM and the TGI [41] was 9.95 µM. The TGI [42] was 15.3 µM, the TGI [43] was 26.2 µM and the TGI [44] was 26.4 µM. For the same compound, the TGI [45] was 12.3 µM, the TGI [46] was 6.15 µM and the TGI [47] was 8.53 µM. For the same compound, the TGI [48] was 4.53 µM, the TGI [49] was 5.08 µM and the TGI [50] was 8.8 µM. The TGI [51] was 10.7 µM, the TGI [52] was 38.2 µM and the TGI [53] was 7.29 µM. It also gave a TGI [54] of 6.07 µM, a TGI [55] of 15.3 µM and a TGI [56] of 4.5 µM. The TGI [57] was 8.27 µM and the TGI [58] was 16 µM.
